US10980769B2, “Tiglien-3-one derivatives” (QBIOTICS PTY LTD, priority 2005, dated 2021)
Entries after “also recorded” stand apart in the source; their conditions may differ.

Assays:
[1] = system: PKC; assay: PKC activation in cultured tumour cells (scattering and growth inhibition of MCF7); assay type: cell-based, human; settings: defined by scattering and growth inhibition of MCF7 breast cancer cells
[2] = system: K562 leukemia, MCF-7 breast cancer, Colo-205 colon cancer and D04 and SKMel-5 melanoma; assay: In vitro growth inhibition profile, sensitive versus other cell lines; assay type: cell-based, human
Procedure: In addition, scattering of MCF-7 and HT-29 colon tumour cells was observed, typical of PKC activators. […] Additionally, given their similarity in structure, EBI-47, EBI-59 and EBI-61 are also considered to be protein kinase C activators.
For growth inhibition assays, cells (2000-5000/well) were seeded in 96-well plates in duplicate, treated with drug next day and allowed to grow for a further 5-6 days. The plates were then washed in PBS (phosphate buffered saline, pH 7.2), fixed with ethanol and stained by addition of 50 μL 0.4% SRB (sulforhodamine) in 1% acetic acid. The plate was left at room temperature for a minimum of 15 minutes, then washed rapidly with tap water and then twice with 1% acetic acid. After addition of 100 μL/well of 10 mM Tris base (unbuffered, pH>9), plates were left for a minimum of 5 minutes, then the absorbance was read at 564 nm on the ELISA reader, with a 3 second prior shaking. After subtraction of a blank (wells with no cells, typically about 0.04), growth inhibition was calculated as % of the untreated control and plotted against dose. […]

[3] = system: MM96L cell line; assay: Changes in morphology of cultured cells; assay type: cell-based, human
[4] = system: human nasopharyngeal tumour; assay: Intralesional injection of human nasopharyngeal tumour in SCID-NOD mice; assay type: in vivo, mouse; settings: up to 3 injections, total of 25 μg in 25% propylene glycol-saline, 2 mice
Procedure: A second mouse model was tested in a pilot study, involving an 8 mm diameter human nasopharyngeal tumour implanted and growing subcutaneously on the neck of a SCID-NOD mouse. Up to 3 injections of EBI-46 (total of 25 μg in 75 μL25% propylene glycol-saline) were made into the NPC tumours of 2 mice.

[5] = system: normal skin; assay: Inflammatory response of skin; settings: in vivo
[6] = system: human lung A549; assay: Growth inhibition of cultured cells; assay type: cell-based
Procedure: (§1) Briefly, a range of tumour cells including mouse melanoma, human melanoma, mouse squamous cell carcinoma, human breast, human colon, human leukemia and human lung and normal human cells including normal human fibroblasts were seeded at 2-5,000 per microtitre well (96-well plate) in 10% FCS-RPMI 1640 culture medium, treated, and allowed to grow until the controls were nearly confluent (5-6 days). The wells were then washed twice with PBS, fix with ethanol for a minimum of 5 minutes and washed with water. SRB solution (50 μL of 0.4% in 1% acetic acid) was added and left at room temperature for a minimum of 15 minutes. The plate was washed rapidly with tap water and then twice with 1% acetic acid. After addition of 100 μL/well of 10 mM Tris base (unbuffered, pH>9), plates were left for a minimum of 5 minutes, then the absorbance was read at 564 nm on the ELISA reader, with a 3 second prior shaking. After subtraction of a blank (wells with no cells, absorbance typically about 0.04), growth inhibition was calculated as % of the untreated control and plotted against dose.
(§2) Briefly, a suspension of a range of tumour cells including mouse melanoma, human melanoma, mouse squamous cell carcinoma, human breast, human colon, human leukemia and human lung and normal human cells including normal human fibroblasts were seeded into round-bottom microtitre plates in 10% FCS-RPMI 1640 culture medium, treated and allowed to grow for 5-6 days. To measure cell growth, 20 μL of a combined MTS/PMS solution (Promega Cell ProliferationAssay Kit Cat #G5430) was added to each well of the 96 well assay plate. After 1-4 hours the plates were placed in the ELISA plate reader and the absorbance read at 490 nm. After subtraction of a blank (wells with no cells, absorbance typically about 0.4), growth inhibition was calculated as % of the untreated control and plotted against dose.
(§3) For growth inhibition assays, cells (2000-5000/well) were seeded in 96-well plates in duplicate, treated with drug next day and allowed to grow for a further 5-6 days. The plates were then washed in PBS (phosphate buffered saline, pH 7.2), fixed with ethanol and stained by addition of 50 μL 0.4% SRB (sulforhodamine) in 1% acetic acid. The plate was left at room temperature for a minimum of 15 minutes, then washed rapidly with tap water and then twice with 1% acetic acid. After addition of 100 μL/well of 10 mM Tris base (unbuffered, pH>9), plates were left for a minimum of 5 minutes, then the absorbance was read at 564 nm on the ELISA reader, with a 3 second prior shaking. After subtraction of a blank (wells with no cells, typically about 0.04), growth inhibition was calculated as % of the untreated control and plotted against dose.

[7] = system: human breast MCF-7; assay: Growth inhibition of cultured cells; assay type: cell-based; settings: human breast CF-7
Procedure: as §1, §2, §3

[8] = system: human melanoma MM96L; assay: Growth inhibition of cultured cells; assay type: cell-based
Procedure: as §1, §2, §3

[9] = system: normal human fibroblasts (NFF); assay: Growth inhibition of cultured cells; assay type: cell-based
Procedure: as §1, §2, §3

[10] = system: human colon Colo205; assay: Growth inhibition of cultured cells; assay type: cell-based
Procedure: as §1, §2, §3

[11] = system: D04 melanoma; assay: Growth inhibition of cultured cells; assay type: cell-based; settings: human melanoma DO4
Procedure: as §1, §2, §3

[12] = system: human leukemia U937; assay: Growth inhibition of cultured cells; assay type: cell-based
Procedure: as §1, §2, §3

[13] = system: human melanoma MM127; assay: Growth inhibition of cultured cells; assay type: cell-based
Procedure: as §1, §2, §3

[14] = system: HOP62 lung; assay: Growth inhibition of cultured cells; assay type: cell-based; settings: human lung H0P62
Procedure: as §1, §2, §3

[15] = system: human leukemia K562; assay: Growth inhibition of cultured cells; assay type: cell-based
Procedure: as §1, §2, §3

[16] = system: murine B-cell lymphoma line A20; assay: Systemic (intraperitoneal) treatment of A20 lymphoma in SCID-NOD mice; assay type: in vivo; settings: 5 doses of 20-25 μg from day 18, one mouse
Procedure: Animal experiments were conducted under Queensland Institute of Medical Research (QIMR) Animal Ethics Committee approvals. The B16 mouse melanoma model was obtained by injecting 0.5 million B16 mouse melanoma cells subcutaneously into each of the 2 flanks of a male C57BL/6 mouse. The human tumour xenografts were obtained by injecting 2 million of the respective tumour cell line into each of 4 sites on the flanks of male nude mice (BALB/c background). EBI-46 was applied: (a) topically by dilution of a concentrated solution in acetone into an isopropanol gel, once a day for 3 days; (b) intralesionally by injection into the tumour of drug dissolved in 25% propylene glycol-0.1 M saline, (c) systemically by injection intraperitoneally in 25% propylene glycol in 0.1 M saline. Tumour size was measured with electronic callipers in mm and converted to volume (cubic mm) using the formula: Tumour volume=length×breadth×breadth/2. Results
The murine B-cell lymphoma line A20 was used as an experimental model because it has been reported to grow well in mice and closely models the human situation.
SCID-NOD mice (BALB/c background) were shaved and 10E7 A20 cells injected subcutaneously (2 sites per mouse). The tumours tended to grow in a flat, diffuse manner and became raised and measurable at the 10E7 sites only after about 15 days. […]

C/C=C(\C)C(=O)OC1C(C)C2(O)C(C3OC3(CO)C(O)C3(O)C(=O)C(C)=CC32)C2C(C)(C)C12OC(=O)C(C)CC (stereo not shown) [EBI-46, 12-tigloyl-13-(2-methylbutanoyl)-6,7-epoxy-4,5,9,12,13,20-hexahydroxy-1-tiglian-3-one]
PKC activity [1]: yes | growth-inhibiting doses in sensitive cell lines lower than for other human tumour cell lines and normal human fibroblasts [2]: approximately 100 fold | change in morphology of MM96L cells [3]: characteristic change to bipolar morphology; also recorded: extreme bipolar morphology | tumour outcome [4]: no sign of residual tumour; also recorded: delayed but not ablated | effect on skin [5]: can cause inflammation of skin; also recorded: causes an inflammatory response in normal skin | Concentration of EBI-46 at which growth inhibition was observed [6]: <100 ng/mL | Concentration of EBI-46 at which growth inhibition was observed [7]: <100 ng/mL | Concentration of EBI-46 at which growth inhibition was observed [8]: =/<2 μg/mL | Concentration of EBI-46 at which growth inhibition was observed [9]: None observed at 10 μg/mL | Concentration of EBI-46 at which growth inhibition was observed [10]: <100 ng/mL | Concentration of EBI-46 at which growth inhibition was observed [11]: <100 ng/mL | Concentration of EBI-46 at which growth inhibition was observed [12]: <100 ng/mL | Concentration of EBI-46 at which growth inhibition was observed [13]: <100 ng/mL | Concentration of EBI-46 at which growth inhibition was observed [14]: <100 ng/mL | Concentration of EBI-46 at which growth inhibition was observed [15]: <100 ng/mL | tumour growth [16]: strongly inhibited
